Molecules are shown by their SMILES. Bounds are passed on as bounds.

For the assay, the target named is T1, PDE5A1 (human PDE5 from platelets) (Homo sapiens, UniProt O76074).
T1 construct: from tissue; host or cells: platelets from fresh blood of human donors (10,000 g supernatant of sonified platelets)
Briefly: Inhibition of type 5 phosphodiesterase (PDE5) activity, modified SPA test. As to conditions: PDE5-containing human platelet lysate, 0.5 μM cGMP, value classes, read-out: PDE5A1 inhibitory values [measured as −logIC50 (mol/l)] (converted). Format: biochemical. On the procedure:
Method for Measuring Inhibition of the Type 5 Phosphodiesterase (PDE5) Activity:
As a source for human PDE5, platelets are used. For that purpose, 150 ml fresh blood from human donors anticoagulated with citrate [final concentration 0.3% (w/v)] is centrifuged at 200 g for 10 min to obtain the so-called platelet-rich-plasma (PRP) as a supernatant. 1/10 volume of ACD solution (85 mM Na3-citrate, 111 mM D-glucose, 71 mM citric acid, pH 4.4) is added to 9/10 volume of PRP. After centrifugation (1,400 g, 10 min) the cell pellet is resuspended in 3 ml homogenization buffer (NaCl 140 mM, KCl 3.8 mM, EGTA (ethylene glycol tetraacetic acid) 1 mM, MgCl2 1 mM, Tris-HCl 20 mM, beta-mercaptoethanol 1 mM, pH 8.2) plus protease-inhibitor mix giving rise to the final concentrations of 0.5 mM Pefablock (Roche), 10 μM Leupeptin, 5 μM Trypsininhibitor, 2 mM Benzamidin and 10 μM Pepstatin A. The suspension is sonified and thereafter centrifuged for 15 min at 10,000 g. The resulting supernatant (platelet lysate) is used for enzymatic testings.
PDE5A1 activity is inhibited by the compounds of the present subject matter in a modified SPA (scintillation proximity assay) test, supplied by Amersham Biosciences (see procedural instructions “phosphodiesterase [3H]cAMP SPA enzyme assay, code TRKQ 7090”), carried out in 96-well microtitre plates (MTP's). The test volume is 100 μl and contains 20 mM Tris buffer (pH 7.4), 0.1 mg of BSA (bovine serum albumin)/ml, 5 mM Mg^2+, 1 μM motapizone, 10 nM PDE2 inhibitor 2-(3,4-dimethoxybenzyl)-7-[(1R,2R)-2-hydroxy-1-(2-phenylethyl)propyl]-5-methylimidazo[5,1-t][1,2,4]triazin-4(3H)-one, 0.5 μM cGMP (cyclic guanosine monophosphate) (including about 50,000 cpm of [3H]cGMP as a tracer), 1 μl of the respective compound dilution in dimethylsulfoxide (DMSO) and sufficient PDE5-containing platelet lysat (10,000×g supernatant, see above) to ensure that 10-20 wt % of the cGMP is converted under the said experimental conditions. […] After a preincubation of 5 min at 37° C., the reaction is started by adding the substrate (cGMP) and the assay is incubated for a further 15 min; after that, it is stopped by adding SPA beads (50 μl). In accordance with the manufacturer's instructions, the SPA beads had previously been resuspended in water, but are then diluted 1:3 (v/v) in water; the diluted solution also contains 3 mM 8-methoxymethyl-3-isobutyl-1-methylxanthine (IBMX) to ensure a complete PDE activity stop. After the beads have been sedimented (>30 min), the MTP's are analyzed in commercially available luminescence detection devices. The corresponding IC50 values of the compounds for the inhibition of PDE activity are determined from the concentration-effect curves by means of non-linear regression.
As for `COCC(=O)N[C@H]1CC[C@@H](NC(=O)c2c(C)[nH]c3c(-c4cc(F)ccc4OCC4CC4)ccnc23)CC1` [Example E27, 7-[2-(Cyclopropylmethoxy)-5-fluorophenyl]-N-{cis-4-[(methoxyacetyl)amino]cyclohexyl}-2-methyl-1H-pyrrolo[3,2-b]pyridine-3-carboxamide], the IC50 is 1 to 10 nM. As to `COc1ccc(-c2ccnc3c(C(=O)NC4CCN(C(C)=O)CC4)c(C)[nH]c23)c(OCC2CC2)c1` [Example E31, N-(1-Acetylpiperidin-4-yl)-7-[2-(cyclopropylmethoxy)-4-methoxyphenyl]-2-methyl-1H-pyrrolo[3,2-b]pyridine-3-carboxamide], the IC50 was less than 1 nM.

Regarding `CCC(=O)N1CCC(NC(=O)c2c(C)[nH]c3c(-c4ccc(OC)cc4OCC4CC4)ccnc23)CC1` [Example E32, 7-[2-(Cyclopropylmethoxy)-4-methoxyphenyl]-2-methyl-N-(1-propanoylpiperidin-4-yl)-1H-pyrrolo[3,2-b]pyridine-3-carboxamide], the IC50 was less than 1 nM. For `COCC(=O)N1CCC(NC(=O)c2c(C)[nH]c3c(-c4ccc(OC)cc4OCC4CC4)ccnc23)CC1` [Example E33, 7-[2-(Cyclopropylmethoxy)-4-methoxyphenyl]-N-[1-(methoxyacetyl)piperidin-4-yl]-2-methyl-1H-pyrrolo[3,2-b]pyridine-3-carboxamide] the value was less than 1 nM; for `COc1ccc(-c2ccnc3c(C(=O)N[C@H]4CC[C@H](NC(C)=O)CC4)c(C)[nH]c23)c(OCC2CC2)c1` [Example E34, N-[trans-4-(Acetylamino)cyclohexyl]-7-[2-(cyclopropylmethoxy)-4-methoxyphenyl]-2-methyl-1H-pyrrolo[3,2-b]pyridine-3-carboxamide], less than 1 nM; for `CCC(=O)N[C@H]1CC[C@H](NC(=O)c2c(C)[nH]c3c(-c4ccc(OC)cc4OCC4CC4)ccnc23)CC1` [Example E35, 7-[2-(Cyclopropylmethoxy)-4-methoxyphenyl]-2-methyl-N-[trans-4-(propanoylamino)cyclohexyl]-1H-pyrrolo[3,2-b]pyridine-3-carboxamide], less than 1 nM.

On to `COCC(=O)N[C@H]1CC[C@H](NC(=O)c2c(C)[nH]c3c(-c4ccc(OC)cc4OCC4CC4)ccnc23)CC1` [Example E36, 7-[2-(Cyclopropylmethoxy)-4-methoxyphenyl]-N-{trans-4-[(methoxyacetyl)amino]cyclohexyl}-2-methyl-1H-pyrrolo[3,2-b]pyridine-3-carboxamide], for which the IC50 is less than 1 nM. Next, `COc1ccc(-c2ccnc3c(C(=O)N[C@H]4CC[C@@H](NC(C)=O)CC4)c(C)[nH]c23)c(OCC2CC2)c1` [Example E37, N-[cis-4-(Acetylamino)cyclohexyl]-7-[2-(cyclopropylmethoxy)-4-methoxyphenyl]-2-methyl-1H-pyrrolo[3,2-b]pyridine-3-carboxamide]: less than 1 nM. Next, `CCC(=O)N[C@H]1CC[C@@H](NC(=O)c2c(C)[nH]c3c(-c4ccc(OC)cc4OCC4CC4)ccnc23)CC1` [Example E38, 7-[2-(Cyclopropylmethoxy)-4-methoxyphenyl]-2-methyl-N-[cis-4-(propanoylamino)cyclohexyl]-1H-pyrrolo[3,2-b]pyridine-3-carboxamide]: less than 1 nM; `COCC(=O)N[C@H]1CC[C@@H](NC(=O)c2c(C)[nH]c3c(-c4ccc(OC)cc4OCC4CC4)ccnc23)CC1` [Example E39, 7-[2-(Cyclopropylmethoxy)-4-methoxyphenyl]-N-{cis-4-[(methoxyacetyl)amino]cyclohexyl}-2-methyl-1H-pyrrolo[3,2-b]pyridine-3-carboxamide]: 1 to 10 nM.

`COc1ccc(OCC2CC2)c(-c2ccnc3c(C(=O)NC4CCN(C(C)=O)CC4)c(C)[nH]c23)c1` [Example E40, N-(1-Acetylpiperidin-4-yl)-7-[2-(cyclopropylmethoxy)-5-methoxyphenyl]-2-methyl-1H-pyrrolo[3,2-b]pyridine-3-carboxamide]: the IC50 is less than 1 nM. Next, `CCC(=O)N1CCC(NC(=O)c2c(C)[nH]c3c(-c4cc(OC)ccc4OCC4CC4)ccnc23)CC1` [Example E41, 7-[2-(cyclopropylmethoxy)-5-methoxyphenyl]-2-methyl-N-(1-propanoylpiperidin-4-yl)-1H-pyrrolo[3,2-b]pyridine-3-carboxamide]: less than 1 nM.

Take `COCC(=O)N1CCC(NC(=O)c2c(C)[nH]c3c(-c4cc(OC)ccc4OCC4CC4)ccnc23)CC1` [Example E42, 7-[2-(cyclopropylmethoxy)-5-methoxyphenyl]-N-[1-(methoxyacetyl)piperidin-4-yl]-2-methyl-1H-pyrrolo[3,2-b]pyridine-3-carboxamide]: the IC50 is 1 to 10 nM. For the compound `COc1ccc(OCC2CC2)c(-c2ccnc3c(C(=O)N[C@H]4CC[C@H](NC(C)=O)CC4)c(C)[nH]c23)c1` [Example E43, N-[trans-4-(Acetylamino)cyclohexyl]-7-[2-(cyclopropylmethoxy)-5-methoxyphenyl]-2-methyl-1H-pyrrolo[3,2-b]pyridine-3-carboxamide], the IC50 is less than 1 nM. Next, `CCC(=O)N[C@H]1CC[C@H](NC(=O)c2c(C)[nH]c3c(-c4cc(OC)ccc4OCC4CC4)ccnc23)CC1` [Example E44, 7-[2-(Cyclopropylmethoxy)-5-methoxyphenyl]-2-methyl-N-[trans-4-(propanoylamino)cyclohexyl]-1H-pyrrolo[3,2-b]pyridine-3-carboxamide]: less than 1 nM. Next, `COCC(=O)N[C@H]1CC[C@H](NC(=O)c2c(C)[nH]c3c(-c4cc(OC)ccc4OCC4CC4)ccnc23)CC1` [Example E45, 7-[2-(Cyclopropylmethoxy)-5-methoxyphenyl]-N-{trans-4-[(methoxyacetyl)amino]cyclohexyl}-2-methyl-1H-pyrrolo[3,2-b]pyridine-3-carboxamide]: less than 1 nM.

On to `COc1ccc(OCC2CC2)c(-c2ccnc3c(C(=O)N[C@H]4CC[C@@H](NC(C)=O)CC4)c(C)[nH]c23)c1` [Example E46, N-[cis-4-(Acetylamino)cyclohexyl]-7-[2-(cyclopropylmethoxy)-5-methoxyphenyl]-2-methyl-1H-pyrrolo[3,2-b]pyridine-3-carboxamide], for which the IC50 is less than 1 nM. Next, `CCC(=O)N[C@H]1CC[C@@H](NC(=O)c2c(C)[nH]c3c(-c4cc(OC)ccc4OCC4CC4)ccnc23)CC1` [Example E47, 7-[2-(Cyclopropylmethoxy)-5-methoxyphenyl]-2-methyl-N-[cis-4-(propanoylamino)cyclohexyl]-1H-pyrrolo[3,2-b]pyridine-3-carboxamide]: 1 to 10 nM; `COCC(=O)N[C@H]1CC[C@@H](NC(=O)c2c(C)[nH]c3c(-c4cc(OC)ccc4OCC4CC4)ccnc23)CC1` [Example E48, 7-[2-(Cyclopropylmethoxy)-5-methoxyphenyl]-N-{cis-4-[(methoxyacetyl)amino]cyclohexyl}-2-methyl-1H-pyrrolo[3,2-b]pyridine-3-carboxamide]: 1 to 10 nM; `CC(=O)N1CCC(NC(=O)c2c(C)[nH]c3c(-c4cc(C)ccc4OCC4CC4)ccnc23)CC1` [Example E52, N-(1-Acetylpiperidin-4-yl)-7-[2-(cyclopropylmethoxy)-5-methylphenyl]-2-methyl-1H-pyrrolo[3,2-b]pyridine-3-carboxamide]: 1 to 10 nM. As for `CCC(=O)N1CCC(NC(=O)c2c(C)[nH]c3c(-c4cc(C)ccc4OCC4CC4)ccnc23)CC1` [Example E53, 7-[2-(Cyclopropylmethoxy)-5-methylphenyl]-2-methyl-N-(1-propanoylpiperidin-4-yl)-1H-pyrrolo[3,2-b]pyridine-3-carboxamide], the IC50 is 1 to 10 nM.

Regarding `COCC(=O)N1CCC(NC(=O)c2c(C)[nH]c3c(-c4cc(C)ccc4OCC4CC4)ccnc23)CC1` [Example E54, 7-[2-(Cyclopropylmethoxy)-5-methylphenyl]-N-[1-(methoxyacetyl)piperidin-4-yl]-2-methyl-1H-pyrrolo[3,2-b]pyridine-3-carboxamide], the IC50 is 1 to 10 nM.

(Values after patent US8816085B2 (Takeda GmbH, priority 2009, dated 2014).)
